Patent US20240239790A1, “7-Morpholino-1,6-Naphthyridin-5-yl Derivatives and Pharmaceutical Compositions Thereof Useful as DNA-PK Inhibitor” (adMare Therapeutics Society, priority 2021, published 2024)
Read-outs that look alike come from different tables or passages of the source.

Experiments:
[1] = Pharmacokinetic study in male Sprague-Dawley rats (IV and PO), plasma; assay type: in vivo, rat; settings: for AUC(0-t) / Cmax at 5 min / half-life / AUC(0-inf): male, Sprague-Dawley; for AUC(0-t) / Cmax at 5 min / half-life / AUC(0-inf) / AUC—% Extrap—obs / Cl_obs / Vz_obs: rat plasma; for AUC(0-inf): read-out: AUCINF—obs; for F: rat
Procedure: Pharmacokinetic studies were conducted to estimate plasma concentrations obtained after oral gavage (PO) and intravenous (IV) single administration of compounds administered to male Sprague-Dawley rats. Six (6) rats were administered for each compound, route and dose, and plasma was collected at 12 timepoints over a 24 hr period for IV, and 12 timepoints over a 48 hr period for PO. Note that plasma was collected from only 3 animals per timepoint (n=3 for timepoints up to 10 hours, and n=3 for timepoints from 16 h to end of study). Dosing volumes were 5 mL/kg for IV and 10 mL/kg for PO gavage. IV compounds for administration were in solutions, whereas PO compounds were in solution or suspension.
(§1) The in-vivo study plasma samples were analyzed using Ultra Performance Liquid Chromatography (UPLC) with tandem mass spectrometry (MS/MS) detection in multiple reaction monitoring (MRM) mode. A generic bioanalytical method involving plasma sample extraction and cleanup by protein precipitation with acetonitrile was used followed by UPLC-MS/MS analysis.
(§2) A brief example of a generic bioanalytical UPLC-MS/MS method used for analysis of compounds in the in-vivo study plasma samples is as follows. Plasma samples were spiked with internal standard prior to extraction and cleanup by protein precipitation with ice cold acetonitrile containing 0.1% (v/v) ammonium hydroxide at a ratio of 3:1 (solvent:plasma) and centrifuged at 18213 rcf for 15 minutes at 4° C. to pellet precipitates. Aliquots of supernatants were transferred to a 96-well plate and evaporated to dryness at 40° C. under a stream of nitrogen gas. Samples were reconstituted in 50:50 acetonitrile/10 mM ammonium acetate buffer pH 8, mixed thoroughly and analyzed using Ultra Performance Liquid Chromatography (UPLC) with tandem mass spectrometry (MS/MS) detection in multiple reaction monitoring (MRM) mode. Matrix-matched calibration standards and quality control (QC) samples were prepared in naïve C57Bl/6 mouse plasma. The UPLC column used was Waters Acquity UPLC BEH C18 1.7 um, 2.1 mm×50 mm (with guard column). The UPLC mobile phase consisted of: Mobile phase A: 10 mM ammonium acetate in Water pH 8, and Mobile phase B: Acetonitrile. Separation was accomplished with a linear gradient of 5% mobile phase B to 95% mobile phase B in 2 min, and a flow rate of 0.35 mL/min. The MS/MS data acquisition was accomplished using 3 MRM Transitions in ESI+ mode. Parent ion mass 508.37 m/z-to-Daughter ions (m/z) 117.05, 232.13 and 270.22. The quantitation of concentrations in test samples was achieved by matrix-matched calibration with normalization using an internal standard. Data acquisition and analysis were performed using Waters MassLynx software with TargetLynx application manager.
(§3) Estimation of PK parameters was performed using independent noncompartmental model method by PHOENIX WinNonlin software.

FaDu tumour xenograft = experiment: Tumour Growth Delay, FaDu tumour xenograft-bearing animals, compound ± radiation (TGD-ER); assay type: in vivo; settings: PO
Procedure: FaDu tumour xenograft-bearing animals were monitored for tumour growth and once average tumour size reached approximately 100-250 mm3, animals were assigned to treatment cohorts using stratified randomization. […]
For BID dosing regimens, at 8 h following the first injection, animals were again administered with test compound at the same dose as their previous administration. Animals were weighed and had tumours measured using calipers three times weekly until the endpoint of maximum tumour volume, 1000 mm3, was reached and animals were euthanized. Tumour volumes were calculated according to the equation L×W^2/2 with the length (mm) being the longer axis of the tumour; in the case that no tumour was palpable, tumour volumes were recorded as 0 mm^3.
Data were calculated as tumour growth normalized to day 0 measurements, with time to tumour doubling determined. Average time to tumour doubling for each group was used to determine a Tumour Growth Delay Enhancement Ratio (TGD-ER): the time to doubling for treatment groups were divided by the time to doubling for irradiation-alone groups to determine group-specific TGD-ER values, and these were assigned scores based on defined response ranges: values>2.5=A, 1-2.5=B, <1=C.

[2] = Pharmacokinetic study in male Beagle dogs (IV and PO), plasma; assay type: in vivo, dog; settings: for AUC—% Extrap—obs / Cl_obs / Vz_obs / AUC(0-t) / half-life / AUC(0-inf) / Cmax: dog plasma; for F: dog; for AUC(0-t) / half-life / AUC(0-inf) / Cmax: male, Beagle; for AUC(0-inf): read-out: AUCINF—obs; for Cmax: read-out: Cmax (5 min)
Procedure: Pharmacokinetic studies were conducted to estimate plasma concentrations obtained after oral gavage (PO) and intravenous (IV) single administration of compounds administered to separate groups of male Beagle dogs. Three (3) dogs were administered a compound via the intravenous (IV) route at 3 mg/kg and 2.5 mL/kg, and plasma was collected at 12 timepoints over a 24-hour period. Following a 7 days washout period, the same dogs were administered the same compound via PO at 10 mg/kg and 5 mL/kg, and plasma was collected at 12 timepoints over a 48-hour period.
as §1, §2, §3

## CN1CCN(CCOc2cnc(N[C@H]3CC[C@@H](Oc4nc(N5CCOCC5)cc5ncccc45)CC3)nc2)CC1 [Compound 69, 5-(2-(4-Methylpiperazin-1-yl)ethoxy)-N-((1s,4s)-4-((7-morpholino-1,6-naphthyridin-5-yl)oxy)cyclohexyl)pyrimidin-2-amine]
[1]; IV, 3 mg/kg
  AUC(0-t): 488 ng·h/mL
  Cmax at 5 min: 183 ng/mL
  half-life: 4.82 h
  AUC(0-inf): 501 ng·h/mL
  AUC—% Extrap—obs: 2.61%
  Cl_obs: 99.8872 mL/min/kg
  Vz_obs: 41.64841 L/kg
[1]; PO, 3 mg/kg
  AUC(0-t): 305 ng·h/mL
  Cmax at 5 min: 27.2 ng/mL
  half-life: 2.81 h
  AUC(0-inf): 308 ng·h/mL
  AUC—% Extrap—obs: 1.07%
  Cl_obs: 162.417 mL/min/kg
  Vz_obs: 39.5678 L/kg
  F: 62%
[1]; PO, 10 mg/kg
  AUC(0-t): 1550 ng·h/mL
  Cmax at 5 min: 140 ng/mL
  half-life: 3.23 h
  AUC(0-inf): 1570 ng·h/mL
  AUC—% Extrap—obs: 1.16%
  Cl_obs: 106.252 mL/min/kg
  Vz_obs: 29.72118 L/kg
  F: 95%
[1]; PO, 30 mg/kg
  AUC(0-t): 5870 ng·h/mL
  Cmax at 5 min: 482 ng/mL
  half-life: 6.47 h
  AUC(0-inf): 5890 ng·h/mL
  AUC—% Extrap—obs: 0.37%
  Cl_obs: 84.9088 mL/min/kg
  Vz_obs: 47.52784 L/kg
  F: 120%
FaDu tumour xenograft; 30 mpk + @4 h 10 Gy
  TGD-ER Range Score: C (<1=C)
FaDu tumour xenograft; 30 mpk BID + 10 Gy
  TGD-ER Range Score: B (1-2.5=B)
FaDu tumour xenograft; 100 mpk + @4 h 10 Gy
  TGD-ER Range Score: B (1-2.5=B)
FaDu tumour xenograft; (30 mpk + 2 Gy) Q5D
  TGD-ER Range Score: A (values>2.5=A)
FaDu tumour xenograft; (30 mpk) Q5D
  TGD-ER Range Score: C (<1=C)
[2]; IV, 3 mg/kg
  AUC—% Extrap—obs: 23.94%
  Cl_obs: 32.4562 mL/min/kg
  Vz_obs: 37.41197 L/kg
  AUC(0-t): 1180 ng·h/mL
  half-life: 13.3 h
  AUC(0-inf): 1560 ng·h/mL
  Cmax: 397 ng/mL
[2]; PO, 10 mg/kg
  AUC—% Extrap—obs: 9.05%
  Cl_obs: 27.6643 mL/min/kg
  Vz_obs: 32.69379 L/kg
  F: 143%
  AUC(0-t): 5640 ng·h/mL
  half-life: 13.8 h
  AUC(0-inf): 6220 ng·h/mL
  Cmax: 291 ng/mL

## CN(C)C(=O)Cn1ccc2nc(N[C@H]3CC[C@@H](Oc4nc(N5CCOCC5)cc5ncccc45)CC3)ncc21 [Compound 86, N,N-Dimethyl-2-(2-(((1s,4s)-4-((7-morpholino-1,6-naphthyridin-5-yl)oxy)cyclohexyl)amino)-5H-pyrrolo[3,2-d]pyrimidin-5-yl)acetamide]
[1]; IV, 3 mg/kg
  AUC(0-t): 371 ng·h/mL
  Cmax at 5 min: 886 ng/mL
  half-life: 0.67 h
  AUC(0-inf): 374 ng·h/mL
  AUC—% Extrap—obs: 0.91%
  Cl_obs: 133.623 mL/min/kg
  Vz_obs: 7.72522 L/kg
[1]; PO, 3 mg/kg
  AUC(0-t): 71.6 ng·h/mL
  Cmax at 5 min: 28.2 ng/mL
  half-life: 2.59 h
  AUC(0-inf): 78.4 ng·h/mL
  AUC—% Extrap—obs: 8.66%
  Cl_obs: 637.8442 mL/min/kg
  Vz_obs: 142.79445 L/kg
  F: 19%
[1]; PO, 10 mg/kg
  AUC(0-t): 1290 ng·h/mL
  Cmax at 5 min: 203 ng/mL
  half-life: 2.39 h
  AUC(0-inf): 1490 ng·h/mL
  AUC—% Extrap—obs: 13.08%
  Cl_obs: 111.962 mL/min/kg
  Vz_obs: 23.13291 L/kg
  F: 105%
[1]; PO, 30 mg/kg
  AUC(0-t): 14100 ng·h/mL
  Cmax at 5 min: 1600 ng/mL
  half-life: 1.26 h
  AUC(0-inf): 14100 ng·h/mL
  AUC—% Extrap—obs: 0.0%
  Cl_obs: 35.5335 mL/min/kg
  Vz_obs: 3.87755 L/kg
  F: 379%
FaDu tumour xenograft; 30 mpk BID + 10 Gy
  TGD-ER Range Score: B (1-2.5=B)
FaDu tumour xenograft; (30 mpk + 2 Gy) Q5D
  TGD-ER Range Score: A (values>2.5=A)
FaDu tumour xenograft; (30 mpk) Q5D
  TGD-ER Range Score: B (1-2.5=B)
[2]; IV, 3 mg/kg
  AUC—% Extrap—obs: 5.80%
  Cl_obs: 28.2873 mL/min/kg
  Vz_obs: 28.9956 L/kg
  AUC(0-t): 1730 ng·h/mL
  half-life: 13.1 h
  AUC(0-inf): 1850 ng·h/mL
  Cmax: 1730 ng/mL
[2]; PO, 10 mg/kg
  AUC—% Extrap—obs: 0.51%
  Cl_obs: 28.6397 mL/min/kg
  Vz_obs: 6.54871 L/kg
  F: 105%
  AUC(0-t): 6090 ng·h/mL
  half-life: 2.62 h
  AUC(0-inf): 6130 ng·h/mL
  Cmax: 1540 ng/mL
